# Measured values from the supplement of paper PMC10307832.
# Experiments:
# Test in all cases: relative viability (nuclei count vs DMSO), 5 days (fraction); higher = more cells survive
# [1] = compound: O=C(CCCCCCNC(=O)c1cnc(N(c2ccccc2)c2ccccc2)nc1)NO [Ricolinostat] + C[C@@H](Oc1cc(-c2cnn(C3CCNCC3)c2)cnc1N)c1c(Cl)ccc(F)c1Cl [Crizotinib] (partner 1 µM)
# Method in brief: (§1)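 After 5 days of treatment, lung cancer cells in 1536-well plates were fixed and stained in a single step (final 0.05% Triton X-100, 1% formaldehyde, 1 ug/ml Hoechst) and their nuclei counted on 4× images. Treatment had been applied by pin tool the day after seeding as one drug alone or as a fixed anchor-drug dose with five library-drug doses (not always all listed) in √10 steps. Relative viability is the nuclei count of treated wells divided by that of vehicle wells, and values are medians of duplicate plates.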
# [2] = compound: O=C(CCCCCCNC(=O)c1cnc(N(c2ccccc2)c2ccccc2)nc1)NO [Ricolinostat] + CCNC(=O)c1noc(-c2cc(C(C)C)c(O)cc2O)c1-c1ccc(CN2CCOCC2)cc1 [Luminespib] (partner 0.01 µM)
# Method in brief: as §1
# TGX 221 + Luminespib = compound: CC1=CN2C(=O)C=C(N=C2C(=C1)C(C)NC3=CC=CC=C3)N4CCOCC4 [TGX 221] + CCNC(=O)c1noc(-c2cc(C(C)C)c(O)cc2O)c1-c1ccc(CN2CCOCC2)cc1 [Luminespib] (partner 0.01 µM)
# Method in brief: as §1
# [3] = compound: O=C(CCCCCCNC(=O)c1cnc(N(c2ccccc2)c2ccccc2)nc1)NO [Ricolinostat] + N=C(N)NC(=N)NCCc1ccccc1 [Phenformin] (partner 250 µM)
# Method in brief: as §1
Cell Line,relative viability ([1]; first compound 0.08 µM),relative viability ([1]; first compound 0.253 µM),relative viability ([1]; first compound 0.8 µM),relative viability ([1]; first compound 2.53 µM),relative viability ([2]; first compound 0.08 µM),relative viability ([2]; first compound 0.253 µM),relative viability ([2]; first compound 0.8 µM),relative viability ([2]; first compound 2.53 µM),relative viability (TGX 221 + Luminespib; first compound 0.08 µM),relative viability (TGX 221 + Luminespib; first compound 0.253 µM),relative viability (TGX 221 + Luminespib; first compound 0.8 µM),relative viability (TGX 221 + Luminespib; first compound 2.53 µM),relative viability (TGX 221 + Luminespib; first compound 8 µM),relative viability ([3]; first compound 0.253 µM),relative viability ([3]; first compound 0.8 µM),relative viability ([3]; first compound 2.53 µM),relative viability ([3]; first compound 0.08 µM)
NCI-H3122,0.219,0.307,0.326,0.336,0.0722,0.0881,0.105,0.0921,0.1,0.0831,0.0649,0.0793,0.116,0.378,0.369,0.318,
PC-3 [JPC-3],1.01,0.902,0.963,0.829,,0.702,0.764,0.66,0.584,0.651,0.693,0.73,0.681,0.472,0.488,0.475,
PC-14,0.882,0.912,0.907,0.761,,0.172,0.177,0.169,0.146,0.135,0.138,0.133,0.151,0.532,0.477,0.37,0.364
RERF-LC-KJ,0.784,0.754,0.819,0.65,1.31,1.07,1.16,0.809,1.13,1.13,1.26,1.21,1.02,0.372,0.406,0.374,0.452
SK-LU-1,0.789,0.897,0.809,0.682,0.199,0.204,0.212,0.223,0.189,0.191,0.201,0.205,0.181,0.666,0.565,0.395,0.449
SK-MES-1,0.912,0.96,1.04,0.969,0.84,0.865,0.609,0.757,0.664,0.721,0.639,0.324,0.229,0.599,0.678,0.672,0.597
SW 1573,0.761,0.851,0.784,0.733,0.389,0.214,0.144,0.154,0.211,0.353,0.247,0.221,0.278,0.393,0.474,0.551,0.316
UMC-11,0.544,0.627,0.561,0.218,0.985,1.02,0.964,0.684,1.03,0.957,1.03,1.04,1.09,0.344,0.271,0.194,0.273
